# Literature values, collected in patent US20240016441A1 (priority 2023, published 2024).
# Where two headings read alike, the source gives them in different places.
# Key:
# BDNF = details: male athletes, p<0.05
# dopaminergic neurons [1] = details: related to a glyoxalase pathway
# dopaminergic neurons [2] = details: neurons treated with L-lactate
# [3] = for plasma L-lactate to brain metabolism: occipital-parietal lobe
# glabellar reflex = details: successful levodopa treatment, patients with Parkinson's disease
# [4] = 84 mEq/L at 5 ml*kg^-1*h^-1 for 3.5 hours, single anesthetized patient
# [5] = in vivo
# [6] = traumatic brain injury patients and healthy controls
smiles,measurement,setting,value
CC(O)C(=O)[O-].[Na+] (racemic) [sodium DL-lactate],BDNF blood concentration,BDNF,increase
C[C@@H](O)C(=O)O [D-lactate],survival of dopaminergic neurons,dopaminergic neurons [1],increase survival of dopaminergic neurons
C[C@H](O)C(=O)O [L-lactate],effect on dopaminergic neurons,dopaminergic neurons [2],apoptosis of dopaminergic neurons
same,plasma L-lactate to brain metabolism,[3]; basal plasma L-lactate concentrations of ~1.0 mmol/L,10%
same,plasma L-lactate to brain metabolism,[3]; high physiologic plasma concentrations,≤ 60%
N[C@@H](Cc1ccc(O)c(O)c1)C(=O)O [levodopa],glabellar reflex,glabellar reflex,reversal of the glabellar reflex
C[C@H](O)C(=O)[O-].[Na+] [sodium L-lactate],vital signs,[4],without any significant change in vital signs
same,adverse effects,[5],without any adverse effects
[13CH3]C(O)C(=O)[O-].[Na+] [sodium [3-^13C] L-lactate],adverse effects,"[3]; 350 mmol/L, priming dose then continuous infusion for ~120 min",without any adverse effects
same,complications,[6],without serious complications
same,peak L-lactate blood concentration,[6],10.6 mg/dL
